From patent US20150290200A1, “INTRACELLULAR KINASE INHIBITORS” (Pharmacyclics Inc., priority 2006, published 2015)
Where two headings read alike, the source gives them in different places.

Key:
Type in all cases: biochemical
BTK kinase domain = target: T1, BTK kinase domain (Homo sapiens, UniProt Q06187); experiment: In vitro kinase assay (HITHUNTER), BTK
T1 construct: The kinase domains of BTK, LCK and ERK were expressed as recombinant purified proteins; made in house
Excerpt: (§1) Similarly, commercially available reagents such as HITHUNTER™ were used to evaluate the effect of compounds on the activity of additional kinases. The kinase domains of BTK, LCK and ERK were expressed as recombinant purified proteins were used for these studies.

LCK kinase domain = target: T2, LCK kinase domain (Homo sapiens, UniProt P06239); experiment: In vitro kinase assay (HITHUNTER), LCK; settings: Table 2
T2 construct: The kinase domains of BTK, LCK and ERK were expressed as recombinant purified proteins; made in house
Excerpt: as §1

ITK kinase domain = target: T3, ITK kinase domain (Homo sapiens, UniProt Q08881); experiment: In vitro kinase assay (HITHUNTER enzyme fragment complementation), ITK; settings: read-out: IC50 ITK
T3 construct: N-terminally His-tagged ITK kinase domain (amino acids 352-617); His (N); made in house
T3 sequence (Q08881 352-617): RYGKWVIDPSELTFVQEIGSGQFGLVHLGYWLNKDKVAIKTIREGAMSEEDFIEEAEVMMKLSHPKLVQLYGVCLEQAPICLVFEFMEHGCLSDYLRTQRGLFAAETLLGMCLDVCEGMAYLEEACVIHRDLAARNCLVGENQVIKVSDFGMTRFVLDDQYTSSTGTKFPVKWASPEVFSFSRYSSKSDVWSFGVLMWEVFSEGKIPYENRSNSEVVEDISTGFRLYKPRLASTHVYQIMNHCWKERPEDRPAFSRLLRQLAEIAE
Protocol: Compounds were screened using the HITHUNTER™ enzyme fragment complementation method (Discoverx). Briefly, a recombinantly produced, N-terminally His-tagged ITK kinase domain (amino acids 352-617) was incubated with various concentrations of individual compounds. ATP and substrate were added, and the kinase reaction was allowed to proceed for 2-16 hours. Commercially available detection reagents were added and allowed to react for 2-4 hours. The reaction was evaluated by luminescence. Initial results were confirmed using full-length recombinant ITK protein.
In order to confirm the mechanism by which compounds depicted herein interact with the kinase domain of Tec and EGFR kinases, we created a point mutant of the ITK kinase domain, whereby the key amino acid, namely C442 was mutated to alanine. The protein was expressed in a commercial baculovirus expression system using the manufacturer's general protocol (Invitrogen, pBlueBac). Protein was expressed and purified using standard techniques. […] While the activity of WT-ITK was inhibited by compounds depicted in this application, the same compounds had no activity towards the C442A mutant kinase domain.

T2 sequence (P06239 245-498 limits assumed, species assumed): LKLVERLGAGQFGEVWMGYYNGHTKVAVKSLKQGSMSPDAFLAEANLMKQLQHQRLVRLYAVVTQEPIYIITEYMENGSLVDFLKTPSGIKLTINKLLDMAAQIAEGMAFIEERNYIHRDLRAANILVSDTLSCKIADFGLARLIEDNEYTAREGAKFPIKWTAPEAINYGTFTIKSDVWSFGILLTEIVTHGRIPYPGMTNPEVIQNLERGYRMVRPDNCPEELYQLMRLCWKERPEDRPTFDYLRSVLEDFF
T1 sequence (Q06187 402-655 limits assumed): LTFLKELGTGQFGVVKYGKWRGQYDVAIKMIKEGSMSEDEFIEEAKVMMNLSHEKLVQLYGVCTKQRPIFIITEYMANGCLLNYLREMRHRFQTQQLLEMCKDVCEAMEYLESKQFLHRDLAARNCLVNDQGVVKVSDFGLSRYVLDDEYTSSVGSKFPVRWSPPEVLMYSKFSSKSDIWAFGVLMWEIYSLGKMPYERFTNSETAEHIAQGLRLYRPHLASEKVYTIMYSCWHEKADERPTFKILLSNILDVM

| SMILES | IC50 (BTK kinase domain; Table 2) | IC50 (LCK kinase domain) | IC50 (ITK kinase domain; Table 2) | other results |
| --- | --- | --- | --- | --- |
| COc1cc(OC)cc(C(=O)CCN2CCOCC2)c1 | 425 nM | 12600 nM | 5 nM |  |
| O=C(CCN1CCOCC1)c1ccc(Cl)c(Cl)c1 | 102 nM | 34100 nM | 13 nM |  |
| O=C(CCN1CCOCC1)c1cccc(Br)c1 | 365 nM |  | 25 nM | IC50 LCK (LCK kinase domain): NO IC50 |
| N#Cc1cccc(C(=O)CCN2CCOCC2)c1 | 643 nM | 413000 nM | 29 nM |  |
| COc1cccc(C(=O)CCN2CCOCC2)c1 | 942 nM | 16400 nM | 35 nM |  |
| O=C(CCN1CCOCC1)c1cccc(C(F)(F)F)c1 | 656 nM | 27100 nM | 43 nM |  |
| O=C(CCN1CCOCC1)c1ccc(F)cc1F | 865 nM |  | 56 nM | IC50 LCK (LCK kinase domain): NO IC50 |
| CC(=O)Nc1cccc(C(=O)CCN2CCOCC2)c1 | 1240 nM | 18400 nM | 65 nM |  |
| N#Cc1ccc(C(=O)CCN2CCOCC2)cc1 | 737 nM |  | 72 nM | IC50 LCK (LCK kinase domain): NO IC50 |
| O=C(CCN1CCOCC1)c1cccc2ccccc12 | 398 nM | 23200 nM | 65 nM |  |
| O=C(CCN1CCOCC1)c1ccc(Oc2ccccc2)cc1 | 94.1 nM | 18500 nM | 91 nM |  |
| O=C(CCN1CCOCC1)c1cccc(Cl)c1 | 775 nM | 47600 nM | 77 nM |  |
| O=C(CCN1CCOCC1)c1ccc2c(c1)OCCO2 | 1540 nM | 20800 nM | 96 nM |  |
| O=C(CCN1CCOCC1)c1ccc(Br)cc1 | 232 nM |  | 104 nM | IC50 LCK (LCK kinase domain): NO IC50 |
| O=C(CCN1CCOCC1)c1cccc(OC(F)(F)F)c1 | 774 nM | 28000 nM | 148 nM |  |
| Cc1ccc(C(=O)CCN2CCOCC2)cc1 | 1520 nM | 164000 nM | 180 nM |  |
| CN(C)c1cccc(C(=O)CCN2CCOCC2)c1 | 3680 nM | 20600 nM | 186 nM |  |
| O=C(CCN1CCOCC1)c1ccc(C(F)(F)F)cc1 | 474 nM |  | 199 nM | IC50 LCK (LCK kinase domain): NO IC50 |
| O=C(CCN1CCOCC1)c1cccc(Oc2ccccc2)c1 | 94.1 nM | 18500 nM | 207 nM |  |

| SMILES | IC50 (BTK kinase domain; Table 2) | IC50 (LCK kinase domain) | IC50 (ITK kinase domain; Table 2) | other results |
| --- | --- | --- | --- | --- |
| O=C(CCN1CCOCC1)c1ccc(F)c(F)c1 | 2890 nM | 33100 nM | 208 nM |  |
| O=C(CCN1CCOCC1)c1c(Cl)cccc1Cl | 80.7 nM |  | 207 nM | IC50 LCK (LCK kinase domain): NO IC50 |
| O=C(CCN1CCOCC1)c1ccc(OC(F)(F)F)cc1 | 1310 nM |  | 219 nM | IC50 LCK (LCK kinase domain): NO IC50 |
| Cc1ccc(C(=O)CCN2CCOCC2)cc1C | 1480 nM | 21200 nM | 223 nM |  |
| O=C(CCN1CCOCC1)c1ccc(Cl)cc1 | 682 nM | 25900 nM | 290 nM |  |
| O=C(CCN1CCOCC1)c1ccccc1Br | 741 nM |  | 305 nM | IC50 LCK (LCK kinase domain): NO IC50 |
| COc1ccc(C(=O)CCN2CCOCC2)c(OC)c1 | 3140 nM | 21100 nM | 345 nM |  |
| O=C(CCN1CCOCC1)c1cccc(F)c1 | 3030 nM | 32600 nM | 381 nM |  |
| Cc1ccc(C(=O)CCN2CCOCC2)c(C)c1 | 1480 nM | 25300 nM | 385 nM |  |
| O=C(CCN1CCOCC1)c1ccc2c(c1)OCO2 | 3920 nM | 23300 nM | 385 nM |  |
| CS(=O)(=O)c1ccc(C(=O)CCN2CCOCC2)cc1 | 753 nM | 23900 nM | 385 nM |  |
| O=C(CCN1CCOCC1)c1ccc(F)cc1C(F)(F)F | 1220 nM |  | 468 nM | IC50 LCK (LCK kinase domain): NO IC50 |
| Cc1cccc(C(=O)CCN2CCOCC2)c1 | 3070 nM | 24400 nM | 560 nM |  |
| NCC1CCN(CCC(=O)c2ccc3ccccc3c2)CC1 |  |  |  | IC50 (BTK kinase domain; Table 5): 84 nM; IC50 (ITK kinase domain; Table 5): 86 nM |
| O=C(CCN1CCC(C(=O)c2ccncc2)CC1)c1ccc2ccccc2c1 |  |  |  | IC50 (BTK kinase domain; Table 5): 486 nM; IC50 (ITK kinase domain; Table 5): 284 nM |
| O=C(CCN1CCC(CNC(=O)C(F)(F)F)CC1)c1ccc2ccccc2c1 |  |  |  | IC50 (BTK kinase domain; Table 5): 266 nM; IC50 (ITK kinase domain; Table 5): 217 nM |
| O=C(CCNCC1CCNCC1)c1ccc2ccccc2c1 |  |  |  | IC50 (BTK kinase domain; Table 5): 100 nM; IC50 (ITK kinase domain; Table 5): 163 nM |
| O=C(CCNCC1CCN(C(=O)c2ccncc2)CC1)c1ccc2ccccc2c1 |  |  |  | IC50 (BTK kinase domain; Table 5): 4 nM; IC50 (ITK kinase domain; Table 5): 36 nM |
| CN(C)C(=O)N1CCC(CNCCC(=O)c2ccc3ccccc3c2)CC1 |  |  |  | IC50 (BTK kinase domain; Table 5): 373 nM; IC50 (ITK kinase domain; Table 5): 737 nM |

| SMILES | IC50 (BTK kinase domain; Table 2) | IC50 (LCK kinase domain) | IC50 (ITK kinase domain; Table 2) | other results |
| --- | --- | --- | --- | --- |
| O=C(CCN1CCOCC1)c1ccccc1Cl [drawing 133] |  | 28100 nM |  |  |
| O=C(CCN1CCOCC1)c1ccccc1Cl [drawing 149] |  |  |  | IC50 LCK (LCK kinase domain): NO IC50 |
| O=C1COc2ccc(C(=O)CCN3CCOCC3)cc2N1 [drawing 166] |  |  |  | IC50 (BTK kinase domain; Table 3, Compound): 781 nM; IC50 (ITK kinase domain; Table 3, Compound): 5.9 nM |
| O=C(CCN1CCOCC1)c1ccc2ccccc2c1 [drawing 167] |  |  |  | IC50 (BTK kinase domain; Table 3, naphthyl analog): 39.5 nM; IC50 (ITK kinase domain; Table 3, naphthyl analog): 20 nM |
| COc1cc2c(cc1OC)CN(CCC(=O)c1ccc3c(c1)NC(=O)CO3)CC2 [drawing 168] |  |  |  | IC50 (BTK kinase domain; Table 3, Compound): 276 nM; IC50 (ITK kinase domain; Table 3, Compound): 30 nM |
| COc1cc2c(cc1OC)CN(CCC(=O)c1ccc3ccccc3c1)CC2 [drawing 169] |  |  |  | IC50 (BTK kinase domain; Table 3, naphthyl analog): 12.8 nM; IC50 (ITK kinase domain; Table 3, naphthyl analog): 7 nM |
| CN(C)C1CCN(CCC(=O)c2ccc3ccccc3c2)C1 (stereo not shown) [drawing 171] |  |  |  | IC50 (BTK kinase domain; Table 3, naphthyl analog): 2.15 nM; IC50 (ITK kinase domain; Table 3, naphthyl analog): 7 nM |
| CN(C)C1CCN(CCC(=O)c2ccc3ccccc3c2)CC1 [drawing 177] |  |  |  | IC50 (BTK kinase domain; Table 3, naphthyl analog): 6.54 nM; IC50 (ITK kinase domain; Table 3, naphthyl analog): 9 nM |
| CC(C)N(CCC(=O)c1ccc2ccccc2c1)C(C)C [drawing 179] |  |  |  | IC50 (BTK kinase domain; Table 3, naphthyl analog): 0.72 nM; IC50 (ITK kinase domain; Table 3, naphthyl analog): 9 nM |
| O=C(CCN1CCOCC1)c1ccc2ccccc2c1 [drawing 185] |  |  |  | IC50 (BTK kinase domain; Table 4): 39 nM; IC50 (ITK kinase domain; Table 4): 20 nM |
| O=C(CCN1CCOCC1)c1cc2ccccc2cn1 [drawing 187] |  |  |  | IC50 BTK (BTK kinase domain; Table 4): no IC50; IC50 (ITK kinase domain; Table 4): 1680 nM |
| O=C(CCN1CCOCC1)c1ccc2occc2c1 [drawing 192] |  |  |  | IC50 (BTK kinase domain; Table 4): 2040 nM; IC50 (ITK kinase domain; Table 4): 75 nM |
| NC(=O)c1ccc2cc(C(=O)CCN3CCOCC3)ccc2c1 [drawing 198] |  |  |  | IC50 (BTK kinase domain; Table 4): 1 nM; IC50 (ITK kinase domain; Table 4): 5 nM |
| O=C(CCN1CCOCC1)c1ccc2ccccc2c1 [drawing 200] |  |  |  | IC50 (BTK kinase domain; Table 5): 39.5 nM; IC50 (ITK kinase domain; Table 5): 20.5 nM |
| O=C(CCN1CCCC1)c1ccc2ccccc2c1 [drawing 201] |  |  |  | IC50 (BTK kinase domain; Table 5): 8220 nM; IC50 (ITK kinase domain; Table 5): 137 nM |
| O=C(CCN1CCC(Cc2ccccc2)CC1)c1ccc2ccccc2c1 [drawing 204] |  |  |  | IC50 (BTK kinase domain; Table 5): 128 nM; IC50 (ITK kinase domain; Table 5): 60.2 nM |
| COc1cc2c(cc1OC)CN(CCC(=O)c1ccc3ccccc3c1)CC2 [drawing 212] |  |  |  | IC50 (BTK kinase domain; Table 5): 115 nM; IC50 (ITK kinase domain; Table 5): 7.2 nM |
| CN(C)C1CCN(CCC(=O)c2ccc3ccccc3c2)C1 (stereo not shown) [drawing 214] |  |  |  | IC50 (BTK kinase domain; Table 5): 49.2 nM; IC50 (ITK kinase domain; Table 5): 6.9 nM |
